# What was measured:
# [1] = test system: serpin protein in B. longum NCC 2705; test: Serpin protein level by ELISA in B. longum NCC 2705 grown on HMOs; type: cell-based, Bifidobacterium longum subsp longum; conditions: HMO 0.5 wt %, 16 h, FIG. 1
# Protocol: (§1) B. longum strain CNCM I-2618 (NCC 2705) was grown in Biolector (growth conditions—anaerobic, 37° C.) in MRS+5 mM L-cysteine (MRSc) base without sugar, to which different commercially available Human Milk Oligosaccharides (HMOs) were added at a concentration of 0.5 wt %.
# (§2) 48-well microtiter plate with pH sensor and dissolved oxygen (DO) sensor were used to culture the strains in Biolector (m2p-labs Aachen, Germany). It was continuously shaken to prevent bacteria aggregation for 16 h. Cultures were harvested by centrifugation and supernatant was removed. Pellet was resuspended in PBS supplemented with halt protease inhibitor (Sigma) and lysed using glassbeads. Lysate containing both soluble and insoluble material was then collected. Total protein content was measured using Pierce BCA kit (Thermofisher) and serpin protein concentration was determined using ELISA.
# [2] = test system: B. longum strain CNCM I-2618 (NCC 2705); test: Growth of B. longum NCC 2705 in Biolector on MRSc base without sugar plus HMO; type: cell-based, Bifidobacterium longum subsp longum; conditions: HMO 0.5 wt % in MRSc base without sugar, anaerobic, 37° C., 16 h
# Protocol: as §1, §2
# [3] = test system: B. longum subsp. longum strains; test: Growth of B. longum subsp. longum strains on LNT as sole carbohydrate source; type: cell-based, Bifidobacterium longum subsp longum; conditions: 0.5% LNT in MRSc base without sugar, 16 h, all tested B. longum subsp. longum strains
# Protocol: as §1, §2
# The serpin encoding gene and its surrounding is highly conserved within the B. longum subsp. longum species. Strains of B. longum subsp. longum were selected to represent the entire span of the genetic phylogenetic tree (Table 2). All strains were cultured in Biolector (according to example 1) in a MRSc base without sugar, to which 0.5% glucose or 0.5% of LNT was added. Cultures were grown for 16 h and harvested. Obtained pellets were further analyzed for total and serpin protein content (see example 1).
# [4] = test system: serpin in Bifidobacterium longum subsp longum; test: Serpin induction by LNT in culture medium containing glucose; type: cell-based; conditions: only when the glucose is present at levels allowing its depletion during fermentation
# Excerpt: LNT may be added to a conventional culture medium comprising up to 8 wt %, preferably up to 6 wt %, for example up to 4 wt %, of another sugar suitable to sustain B. longum growth, such as, but not limited to, glucose. […] Preferably the culture medium at the end of the fermentation contains less than 0.4 wt % glucose, such as from 0 wt % to 0.3 wt % glucose, for example from 0.02 wt % to 0.4 wt %, or from about 0.05 wt % to about 0.3 wt %. Conventional culture mediums suitable for growth of B. longum are well known to the person skilled in the art.
# [5] = test system: serpin protein in B. longum subsp. longum strains; test: Serpin protein level by ELISA in B. longum subsp. longum strains grown on glucose or LNT; type: cell-based, Bifidobacterium longum subsp longum; conditions: 0.5% LNT vs 0.5% glucose, 16 h, all tested strains, FIG. 2
# Protocol: 48-well microtiter plate with pH sensor and dissolved oxygen (DO) sensor were used to culture the strains in Biolector [MUT]-labs Aachen, Germany). It was continuously shaken to prevent bacteria aggregation for 16 h. Cultures were harvested by centrifugation and supernatant was removed. Pellet was resuspended in PBS supplemented with halt protease inhibitor (Sigma) and lysed using glassbeads. Lysate containing both soluble and insoluble material was then collected. Total protein content was measured using Pierce BCA kit (Thermofisher) and serpin protein concentration was determined using ELISA. […] All strains were cultured in Biolector (according to example 1) in a MRSc base without sugar, to which 0.5% glucose or 0.5% of LNT was added. Cultures were grown for 16 h and harvested. Obtained pellets were further analyzed for total and serpin protein content (see example 1).
compound,measurement,setting,value
"CC(=O)N[C@H]1[C@H](O[C@H]2[C@@H](O)[C@@H](CO)O[C@@H](O[C@H]3[C@H](O)[C@@H](O)C(O)O[C@@H]3CO)[C@@H]2O)O[C@H](CO)[C@@H](O)[C@@H]1O[C@@H]1O[C@H](CO)[C@H](O)[C@H](O)[C@H]1O (some centres unmarked) [LNT, Lacto-N-tetraose]",levels of serpin protein in B. longum NCC 2705,[1],significantly increase
same,support of growth of B. longum NCC 2705,[2],the only one supporting the growth
same,growth on LNT as sole carbohydrate source,[3],able to grow
same,induction of serpin production when glucose is present,[4],can induce production of serpin
same,serpin protein levels in B. longum subsp. longum strains,[5],increased
